Assay results: patent publication US9902728B2, “Pyrrolo and pyrazolopyrimidines as ubiquitin-specific protease 7 inhibitors” (Forma Therapeutics, Inc., priority 2014, dated 2018)

Each compound was assayed against T1, USP7 (Homo sapiens, UniProt Q93009) (assay: USP7 Assay A (Ubitquin-Rhodamine 110 Assay)). Conditions: USP7 activity in USP7 assay A and B (table does not say which assay per compound); read-out: USP7_IC50.
T1 construct: USP7, construct USP7 (208-1102) 6*His, Viva Biotech; 6xHis (C); purchased Viva Biotech
Assay type: biochemical
Procedure, shortened: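 Enzyme and compound sat together for 30 min before Ub-Rh110 was added, in buffer of 20 mM Tris-HCl (pH 8.0), 1 mM GSH, 0.03% BGG and 0.01% Triton X-100.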

T1 sequence (Q93009 208-1102): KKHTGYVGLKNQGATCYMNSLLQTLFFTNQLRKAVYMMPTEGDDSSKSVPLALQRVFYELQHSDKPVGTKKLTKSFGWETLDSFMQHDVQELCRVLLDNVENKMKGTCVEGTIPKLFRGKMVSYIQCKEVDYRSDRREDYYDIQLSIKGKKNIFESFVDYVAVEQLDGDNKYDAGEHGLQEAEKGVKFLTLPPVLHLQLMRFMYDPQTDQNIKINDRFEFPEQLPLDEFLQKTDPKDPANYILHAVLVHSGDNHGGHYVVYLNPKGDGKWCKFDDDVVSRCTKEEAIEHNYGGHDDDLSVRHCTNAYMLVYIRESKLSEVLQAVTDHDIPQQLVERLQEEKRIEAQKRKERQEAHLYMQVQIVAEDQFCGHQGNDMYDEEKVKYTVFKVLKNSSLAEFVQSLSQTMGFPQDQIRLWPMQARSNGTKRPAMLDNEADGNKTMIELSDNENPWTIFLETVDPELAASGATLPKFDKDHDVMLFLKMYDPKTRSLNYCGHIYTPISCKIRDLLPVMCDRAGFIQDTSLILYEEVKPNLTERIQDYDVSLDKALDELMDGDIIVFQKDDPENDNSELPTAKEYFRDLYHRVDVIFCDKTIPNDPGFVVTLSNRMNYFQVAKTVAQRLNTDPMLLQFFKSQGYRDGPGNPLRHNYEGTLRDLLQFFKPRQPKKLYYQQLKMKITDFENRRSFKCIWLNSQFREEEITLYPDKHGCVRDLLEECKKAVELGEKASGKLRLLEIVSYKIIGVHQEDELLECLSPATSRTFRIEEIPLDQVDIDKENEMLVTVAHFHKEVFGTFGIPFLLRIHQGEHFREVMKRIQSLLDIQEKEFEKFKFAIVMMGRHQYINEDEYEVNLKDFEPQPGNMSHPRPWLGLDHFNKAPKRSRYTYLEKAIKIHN

Structure (SMILES) | IC50
CC1(C(=O)N2CCC(O)(Cn3cnc4c(cnn4-c4cccc(N5CC(C6CCOCC6)C5)c4)c3=O)CC2)CC1 [Compound I-1732] | 200 to 1000 nM
CC1(C(=O)N2CCC(O)(Cn3cnc4c(cnn4-c4ccc(Cl)cc4)c3=O)CC2)CC1 [Compound I-1632] | 1000 to 10000 nM
O=C(C[C@@H](C(F)F)n1ccc(F)n1)N1CCC(O)(Cn2cnc3c(cnn3-c3ccc(Cl)cc3)c2=O)CC1 [Compound I-1166] | < 200 nM
O=C(C1CCC(Oc2ccccn2)CC1)N1CCC(O)(Cn2cnc3c(ccn3-c3ccc(F)cc3)c2=O)CC1 (stereo not shown) [Compound I-1124] | < 200 nM
O=C(c1cnc(C2CC2)o1)N1CCC(O)(Cn2cnc3c(cnn3-c3ccc(-n4cc(C(F)(F)F)cn4)cc3)c2=O)CC1 [Compound I-1685] | < 200 nM
CN[C@H]1CCN(c2ccc(-c3ccc(-n4ncc5c(=O)n(CC6(O)CCN(C(=O)C7CC7)CC6)cnc54)cc3)cn2)C1 [Compound I-684] | < 200 nM
O=C(C1CCC(Oc2ccc(F)cn2)CC1)N1CCC(O)(Cn2cnc3c(cnn3-c3ccc(F)cc3)c2=O)CC1 (stereo not shown) [Compound I-737] | < 200 nM
O=C(C1CC1)N1CCC(O)(Cn2cnc3c(cnn3-c3ccc(N4CCC5(CC4)CC(O)C5)cc3)c2=O)CC1 [Compound I-1739] | 1000 to 10000 nM
CN[C@@H]1CCN(c2ccc(-c3ccc(-n4ncc5c(=O)n(CC6(O)CCN(C(=O)C7CC7)CC6)cnc54)cc3)cc2)C1 [Compound I-690] | 200 to 1000 nM
Cn1ccc(OC2CCC(C(=O)N3CCC(O)(Cn4cnc5c(cnn5-c5ccc(F)cc5)c4=O)CC3)CC2)n1 (stereo not shown) [Compound I-754] | 200 to 1000 nM
CC1(C(=O)N2CCC(O)(Cn3cnc4c(cnn4-c4ccc(N5CC(C6CCOCC6)C5)cc4)c3=O)CC2)CC1 [Compound I-1570] | 200 to 1000 nM
CN1CCN(c2cccc(-n3ccc4c(=O)n(CC5(O)CCN(C(=O)C[C@@H](C(F)F)n6cccn6)CC5)cnc43)c2)CC1 [Compound I-793] | < 200 nM
CN1CCC2(CC1)CCN(c1ccc(-n3ncc4c(=O)n(CC5(O)CCN(C(=O)C6CC6)CC5)cnc43)cc1)CC2 [Compound I-1622] | < 200 nM
C[C@H](CC(=O)N1CCC(O)(Cn2cnc3c(cnn3-c3ccc(F)cc3)c2=O)CC1)n1ccc(F)n1 [Compound I-1028] | < 200 nM
O=C(C1CC1)N1CCC(O)(Cn2cnc3c(cnn3-c3ccc(N4CCC5(CC4)CC5)cc3)c2=O)CC1 [Compound I-1755] | 1000 to 10000 nM
CC1(C(=O)N2CCC(O)(Cn3cnc4c(cnn4-c4ccc(N5CCN(C6COC6)CC5)cc4)c3=O)CC2)CC1 [Compound I-1701] | 200 to 1000 nM

Structure (SMILES) | IC50
CN1CCN(c2cccc(-n3ncc4c(=O)n(CC5(O)CCN(C(=O)C6(C)CC6)CC5)cnc43)c2)CC1 [Compound I-1690] | < 200 nM
Cc1nc(-c2ccc(-n3ncc4c(=O)n(CC5(O)CCN(C(=O)c6ccc(F)cc6)CC5)cnc43)cc2)c[nH]1 [Compound I-983] | 1000 to 10000 nM
O=C(OCCCN1CCCC1)N1CCC(O)(Cn2cnc3c(cnn3-c3ccc(F)cc3)c2=O)CC1 [Compound I-486, 3-(Pyrrolidin-1-yl)propyl 4-((1-(4-fluorophenyl)-4-oxo-1,4-dihydro-5H-pyrazolo[3,4-d]pyrimidin-5-yl)methyl)-4-hydroxypiperidine-1-carboxylate] | 1000 to 10000 nM
O=C(c1cnc(C2CC2)o1)N1CCC(O)(Cn2cnc3c(cnn3-c3ccc(C4CC4)cc3)c2=O)CC1 [Compound I-629] | < 200 nM
C[C@@H]1CN(c2ccc(-n3ncc4c(=O)n(CC5(O)CCN(C(=O)C6(C)CC6)CC5)cnc43)cc2)CCN1C [Compound I-1640] | < 200 nM
Cn1ncc2c(=O)n(CC3(O)CCN(C(=O)CC(C(F)F)n4ccc(F)n4)CC3)cnc21 (stereo not shown) [Compound I-1753] | 200 to 1000 nM
Cn1ncc2c(=O)n(CC3(O)CCN(C(=O)CC(C(F)F)n4ccc(F)n4)CC3)cnc21 (single isomer, unassigned) [Compound I-1698] | > 10000 nM
O=C(c1cccn1Cc1ccccc1F)N1CCC(O)(Cn2cnc3c(cnn3-c3ccc(F)cc3)c2=O)CC1 [Compound I-561] | 200 to 1000 nM
O=C(c1ccn(C2CC2)n1)N1CCC(O)(Cn2cnc3c(cnn3-c3ccc(Cl)cc3)c2=O)CC1 [Compound I-1093] | 1000 to 10000 nM
CN1CCN(c2ccc(-n3ncc4c(=O)n(CC5(O)CCN(C(=O)C6(C)CC6)CC5)cnc43)cc2)CC1 [Compound I-1641] | < 200 nM
O=C(c1ccc(F)cc1)N1CCC(O)(Cn2cnc3c(cnn3-c3ccc(N4CCCc5cnccc54)cc3)c2=O)CC1 [Compound I-1729] | 1000 to 10000 nM
Cc1nccn1-c1ccc(-n2ncc3c(=O)n(CC4(O)CCN(C(=O)c5ccc(F)cc5)CC4)cnc32)cc1 [Compound I-988] | 1000 to 10000 nM
O=C(c1cnc(C2CC2)o1)N1CCC(O)(Cn2cnc3c(cnn3-c3ccc(-n4cc(CO)cn4)cc3)c2=O)CC1 [Compound I-1684] | < 200 nM
NC(=O)Cn1cc(-c2ccc(C(=O)N3CCC(O)(Cn4cnc5c(cnn5-c5ccc(F)cc5)c4=O)CC3)cc2)cn1 [Compound I-1002, 2-(4-(4-(4-((1-(4-fluorophenyl)-4-oxo-1H-pyrazolo[3,4-d]pyrimidin-5(4H)-yl)methyl)-4-hydroxypiperidine-1-carbonyl)phenyl)-1H-pyrazol-1-yl)acetamide] | 1000 to 10000 nM
CN1CCN(c2cccc(-n3ncc4c(=O)n(CC5(O)CCN(C(=O)C6(C)CC6)CC5)cnc43)c2)CC1C(F)F (stereo not shown) [Compound I-1694] | < 200 nM
O=C(C1CCC(Nc2ccccc2)CC1)N1CCC(O)(Cn2cnc3c(cnn3-c3ccc(F)cc3)c2=O)CC1 (stereo not shown) [Compound I-768] | < 200 nM

Same assay, conditions: USP7 assay A and B (table does not say which assay per compound); read-out: USP7_IC50

Structure (SMILES) | IC50
COc1ccc(C(=O)N2CCC(O)(C(C)n3cnc4c(cnn4-c4ccc(F)cc4)c3=O)CC2)cc1 (single isomer, unassigned) [Compound I-615] | 200 to 1000 nM
Cc1ccc(-n2ncc3c(=O)n(CC4(O)CCN(C(=O)C[C@H](C(F)F)n5cccn5)CC4)cnc32)cc1 [Compound I-1060] | < 200 nM
Cn1ncc2c(=O)n(CC3(O)CCN(C(=O)c4ccc(Nc5ccccc5)cc4)CC3)cnc21 [Compound I-13] | 1000 to 10000 nM
O=C(C[C@H](c1ccccc1)C(F)F)N1CCC(O)(Cn2cnc3c(cnn3-c3ccccc3)c2=O)CC1 [Compound I-1104] | 1000 to 10000 nM
Nc1cccc(-n2ncc3c(=O)n(CC4(O)CCN(C(=O)C5CC5)CC4)cnc32)c1 [Compound I-964] | 1000 to 10000 nM
O=C(c1ccc(NC2CC2)cc1)N1CCC(O)(Cn2cnc3c(cnn3-c3ccccc3)c2=O)CC1 [Compound I-23, 5-((1-(4-(Cyclopropylamino)benzoyl)-4-hydroxypiperidin-4-yl)methyl)-1-phenyl-1,5-dihydro-4H-pyrazolo[3,4-d]pyrimidin-4-one] | 200 to 1000 nM
O=C(C[C@H](C(F)F)n1cccn1)N1CCC(O)(Cn2cnc3c(cnn3-c3ccc(F)cc3)c2=O)CC1 [Compound I-517] | 1000 to 10000 nM
CN1CCN(c2ccc(C(=O)N3CCC(O)(Cn4cnc5c(cnn5-c5ccc(F)cc5)c4=O)CC3)cc2F)CC1 [Compound I-537] | 1000 to 10000 nM
N#Cc1cccc(-c2cccc(-n3ncc4c(=O)n(CC5(O)CCN(C(=O)C6CC6)CC5)cnc43)c2)c1 [Compound I-359] | 1000 to 10000 nM
O=C(c1ccc(F)c(F)c1)N1CCC(O)(Cn2cnc3c(cnn3-c3ccc(F)cc3)c2=O)CC1 [Compound I-309] | 1000 to 10000 nM
COc1cccc(-n2ncc3c(=O)n(CC4(O)CCN(C(=O)c5ccc(F)cc5)CC4)cnc32)c1 [Compound I-621] | 1000 to 10000 nM
O=C(c1cccc(Cl)c1)N1CCC(O)(Cn2cnc3c(cnn3-c3ccc(F)cc3)c2=O)CC1 [Compound I-303] | 1000 to 10000 nM
O=C(c1ccc(-n2cccn2)cc1)N1CCC(O)(Cn2cnc3c(cnn3-c3ccc(F)cc3)c2=O)CC1 [Compound I-535] | 200 to 1000 nM
Cc1cnc(C(=O)N2CCC(O)(Cn3cnc4c(cnn4-c4ccccc4)c3=O)CC2)cn1 [Compound I-227] | > 10000 nM
C#CC(=O)N1CC[C@H]1C(=O)N1CCC(O)(Cn2cnc3c(cnn3-c3ccc(F)cc3)c2=O)CC1 [Compound I-803] | 200 to 1000 nM
CN(C)C(=O)N1CCC(O)(Cn2cnc3c(cnn3-c3ccc(F)cc3)c2=O)CC1 [Compound I-279] | 1000 to 10000 nM
O=C(O)Cc1cccc(-n2ncc3c(=O)n(CC4(O)CCN(C(=O)c5ccccc5)CC4)cnc32)c1 [Compound I-11, 2-(3-(5-((1-Benzoyl-4-hydroxypiperidin-4-yl)methyl)-4-oxo-4,5-dihydro-1H-pyrazolo[3,4-d]pyrimidin-1-yl)phenyl)acetic acid] | > 10000 nM
NCc1cccc(-n2ccc3c(=O)n(CC4(O)CCN(C(=O)c5ccc(F)cc5)CC4)cnc32)c1 [Compound I-51, 7-(3-(Aminomethyl)phenyl)-3-((1-(4-fluorobenzoyl)-4-hydroxypiperidin-4-yl)methyl)-3,7-dihydro-4H-pyrrolo[2,3-d]pyrimidin-4-one] | 1000 to 10000 nM
CN(C)C(=O)Nc1cccc(-n2ncc3c(=O)n(CC4(O)CCN(C(=O)C5CC5)CC4)cnc32)c1 [Compound I-1501] | 1000 to 10000 nM
O=C(c1ccc(F)cc1)N1CCC(O)(Cn2cnc3c(cnn3-c3ccc(F)c(O)c3)c2=O)CC1 [Compound I-632] | 1000 to 10000 nM
COc1ccc(Cl)cc1C(=O)N1CCC(O)(Cn2cnc3c(cnn3-c3ccccc3)c2=O)CC1 [Compound I-218] | 1000 to 10000 nM
O=C(C1CC1)N1CCC(O)(Cn2cnc3c(cnn3-c3ccc(OC4CCOCC4)cc3)c2=O)CC1 [Compound I-1667] | 1000 to 10000 nM
Cn1ncc2c(=O)n(CC3(O)CCN(C(=O)CC(c4ccccc4)C(F)F)CC3)cnc21 (stereo not shown) [Compound I-147] | 1000 to 10000 nM
O=C(C1CC1)N1CCC(O)(Cn2cnc3c(cnn3-c3ccc(Oc4ccccc4)cc3)c2=O)CC1 [Compound I-296] | 1000 to 10000 nM
CN(C)C(=O)N1CCC(O)(Cn2cnc3c(cnn3-c3ccc(-n4cc(C(F)(F)F)cn4)cc3)c2=O)CC1 [Compound I-1526] | 1000 to 10000 nM
O=C(c1cccc(CN2CCCC2)c1)N1CCC(O)(Cn2cnc3c(cnn3-c3ccc(F)cc3)c2=O)CC1 [Compound I-510] | > 10000 nM
